{
  "source": "patent US20100003319A1",
  "about": "“RALOXIFENE IMMEDIATE RELEASE TABLETS” (GLENMARK GENERICS LTD., priority 2008, published 2010)",
  "origin": "cited, not measured here",
  "data": [
    {"smiles": "O=C(c1ccc(OCCN2CCCCC2)cc1)c1c(-c2ccc(O)cc2)sc2cc(O)ccc12", "note": "[raloxifene, [6-hydroxy-2-(4-hydroxyphenyl)-benzothiophen-3-yl]-[4-[2-(1-piperidyl)ethoxy]phenyl]-methanone]", "values": [
      {"measurement": "Solubility in water", "result": "very slightly soluble"}
    ]}
  ]
}
